Results taken from patent EP4582413A1, “ARYLTETRAHYDROPYRIDINE COMPOUND AND PEST CONTROL AGENT” (priority 2022, dated 2024).

Assays:
Type in all cases: in vivo
[1] = system: cat fleas (Ctenocephalides felis); experiment: whole plant or invertebrate; conditions: 72 h, read-out: death rate
Description: In 1 ml of acetone, 1 mg of the presently invented compound was dissolved to prepare a chemical solution having a concentration of 1000 ppm. The bottom surface and side surface of each glass container having an inner wall surface area of 25 cm^2 were coated with 250 µl of the chemical solution, and acetone was then volatilized to form a thin film of the compound on the inner wall of the glass container.
Into each of the treated glass containers, five cat fleas (Ctenocephalides felis) imagoes (mixed-sex) were released, and the glass containers were capped and accommodated in a thermostatic room at 25°C. Three days after the release, the number of dead flea individuals were examined, and the death rate was calculated from the same calculation formula as in Test Example 1.

[2] = system: diamondback moths (Plutella xylostella); experiment: Insecticidal test for diamondback moths; conditions: Plutella xylostella, 144 h; 500 ppm chemical solution, leaves soaked, third-instar larvae, six days, 25°C; read-out: death rate
Description: A 10% by mass emulsion of the presently invented compound prepared according to the above formulation example for an emulsion was diluted with water containing a spreader to prepare a chemical solution having a concentration of 500 ppm. Chinese olive leaves were soaked in the chemical solution for approximately 10 seconds. After the completion of the soaking operation, the Chinese olive leaves treated with the chemical solution were air-dried, and then put in dishes. Into each dish, five third-instar diamondback moths (Plutella xylostella) larvae were released, and the dishes were capped and accommodated in a thermostatic room at 25°C. […] The test was carried out in duplicate.

[3] = system: brown rice planthoppers (Nilaparvata lugens); experiment: Insecticidal test for brown rice planthoppers; conditions: Nilaparvata lugens, 144 h; 500 ppm chemical solution, rice leaf sheaths soaked, third-instar larvae, six days, 25°C; read-out: death rate
Description: A 10% by mass emulsion of the presently invented compound prepared according to the above formulation example for an emulsion was diluted with water containing a spreader to prepare a chemical solution having a concentration of 500 ppm. Rice leaf sheaths were soaked in the chemical solution for approximately 10 seconds. After the completion of the soaking operation, the rice leaf sheaths treated with the chemical solution were air-dried, and then put in test tubes. Into each test tube, five third-instar brown rice planthoppers (Nilaparvata lugens) larvae were released, and the test tubes were capped with sponge and accommodated in a thermostatic room at 25°C. Six days after the accommodation, the number of dead brown rice planthoppers individuals in the test tubes were examined, and the death rate was calculated from a calculation formula shown below. The test was carried out in duplicate. [formula]

[4] = system: western flower thrips (Frankliniella occidentalis); experiment: Insecticidal activity against western flower thrips; conditions: Frankliniella occidentalis, 48 h; 500 ppm chemical solution sprinkled (2.5 mg/cm^2), larvae on common bean leaf, after 2 days; read-out: death rate
Description: Wet filter paper was laid on each styrol cup having an inner diameter of 7 cm, and a common bean leaf cut into a 3 cm square was placed thereon, and inoculated with 20 western flower thrips (Frankliniella occidentalis) larvae. A 10% by mass emulsion of the presently invented compound prepared according to the above formulation example for an emulsion was diluted with water containing a spreader to prepare a chemical solution having a concentration of 500 ppm. For each styrol cup, 2.5 ml of the chemical solution prepared was sprinkled (2.5 mg/cm^2) with a rotary tower sprinkler. […] The test was carried out in duplicate.

SMILES	mortality at 10 µg/cm2 [1]	mortality at 500 µg/mL [2]	mortality at 500 µg/mL [3]	mortality at 500 µg/mL [4]
O=C(Nc1ccc(Cl)nc1)C1=C(O)CC(c2cnc(Cl)c(-c3ccccc3)c2)NC1=O (centres unmarked) [2-092]	≥ 50%	≥ 90%	≥ 90%	≥ 90%
N#Cc1ccc(NC(=O)C2=C(O)CC(c3cnc(Cl)c(-c4ccccc4)c3)NC2=O)cn1 (centres unmarked) [2-093]	≥ 50%	≥ 90%	≥ 90%	≥ 90%
N#Cc1ccc(NC(=O)C2=C(O)CC(c3cnc(Cl)c(-c4ccccc4)c3)NC2=O)nc1 (centres unmarked) [2-094]	≥ 50%	≥ 90%	≥ 90%	≥ 90%
O=C(Nc1cnc(Cl)cn1)C1=C(O)CC(c2cnc(Cl)c(-c3ccccc3)c2)NC1=O (centres unmarked) [2-095]	≥ 50%	≥ 90%	≥ 90%	≥ 90%
O=C(Nc1ccccn1)C1=C(O)CC(c2cnc(Cl)c(-c3ccc(F)nc3)c2)NC1=O (centres unmarked) [2-096]	≥ 50%	≥ 90%	≥ 90%	≥ 90%
O=C(Nc1ccncn1)C1=C(O)CC(c2cnc(Cl)c(-c3ccc(F)nc3)c2)NC1=O (centres unmarked) [2-101]	≥ 50%	≥ 90%	≥ 90%	≥ 90%
O=C(Nc1ncccn1)C1=C(O)CC(c2cnc(Cl)c(-c3cnccc3F)c2)NC1=O (centres unmarked) [2-134]	≥ 50%	≥ 90%	≥ 90%	≥ 90%
O=C(Nc1nccs1)C1=C(O)CC(c2cnc(Cl)c(-c3cnccc3F)c2)NC1=O (centres unmarked) [2-135]	≥ 50%	≥ 90%	≥ 90%	≥ 90%
O=C(Nc1ccc(F)cn1)C1=C(O)CC(c2cnc(Cl)c(-c3cnccc3F)c2)NC1=O (centres unmarked) [2-136]	≥ 50%	≥ 90%	≥ 90%	≥ 90%
O=C(Nc1cc(Br)cc(F)n1)C1=C(O)CC(c2cnc(Cl)c(-c3cnccc3F)c2)NC1=O (centres unmarked) [2-138]	≥ 50%	≥ 90%	≥ 90%	≥ 90%
O=C(Nc1cncc(F)c1Br)C1=C(O)CC(c2cnc(Cl)c(-c3cnccc3F)c2)NC1=O (centres unmarked) [2-139]	≥ 50%	≥ 90%	≥ 90%	≥ 90%
O=C(Nc1cc(Br)c(F)cn1)C1=C(O)CC(c2cnc(Cl)c(-c3cnccc3F)c2)NC1=O (centres unmarked) [2-140]	≥ 50%	≥ 90%	≥ 90%	≥ 90%
O=C(Nc1cccc(F)n1)C1=C(O)CC(c2cnc(Cl)c(-c3cnccc3F)c2)NC1=O (centres unmarked) [2-142]	≥ 50%	≥ 90%	≥ 90%	≥ 90%
O=C(Nc1cc(Br)ccn1)C1=C(O)CC(c2cnc(Cl)c(-c3cnccc3F)c2)NC1=O (centres unmarked) [2-144]	≥ 50%	≥ 90%	≥ 90%	≥ 90%
O=C(Nc1cc(C(F)(F)F)ccn1)C1=C(O)CC(c2cnc(Cl)c(-c3cnccc3F)c2)NC1=O (centres unmarked) [2-145]	≥ 50%	≥ 90%	≥ 90%	≥ 90%
O=C(Nc1cnccn1)C1=C(O)CC(c2cnc(Cl)c(-c3cncc(Cl)c3)c2)NC1=O (centres unmarked) [2-147]	≥ 50%	≥ 90%	≥ 90%	≥ 90%
O=C(Nc1cnccn1)C1=C(O)CC(c2cnc(Cl)c(-c3ccc(F)cc3)c2)NC1=O (centres unmarked) [2-227]	≥ 50%	≥ 90%	≥ 90%	≥ 90%
